Data: ChEMBL document CHEMBL1201862, “PubChem BioAssay data set” (2004)
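How tested: cells in 96-well plates exposed to compound for 48 hours at five concentrations. GI50 = concentration required for 50% inhibition of growth.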 Calls of active or inactive are those of the source. Rule as the data show it: active = GI50 up to about 1.1 µM and inactive = higher.

Assays:
Experiment in all cases: inhibition of tumour cell growth, NCI panel, 48 h
SN12C = system: SN12C
UACC-62 = system: UACC-62
OVCAR-4 = system: OVCAR-4
SK-OV-3 = system: SK-OV-3
HCC 2998 = system: HCC 2998
Malme-3M = system: Malme-3M
SW-620 = system: SW-620
M14 = system: M14
TK-10 = system: TK-10
SR = system: SR
A549 = system: A549
OVCAR-3 = system: OVCAR-3
U-251 = system: U-251
LOX IMVI = system: LOX IMVI
UO-31 = system: UO-31
RXF 393 = system: RXF 393
A498 = system: A498
HT-29 = system: HT-29
HOP-62 = system: HOP-62
OVCAR-5 = system: OVCAR-5

SMILES	GI50 (SN12C)	GI50 (UACC-62)	GI50 (OVCAR-4)	GI50 (SK-OV-3)	GI50 (HCC 2998)	GI50 (Malme-3M)	GI50 (SW-620)	GI50 (M14)	GI50 (TK-10)	GI50 (SR)	GI50 (A549)	GI50 (OVCAR-3)	GI50 (U-251)	GI50 (LOX IMVI)	GI50 (UO-31)	GI50 (RXF 393)	GI50 (A498)	GI50 (HT-29)	GI50 (HOP-62)	GI50 (OVCAR-5)
CC(OC(C)(C)C)[C@H](NC(=O)OC(C)(C)C)C(=O)O (stereo not given in full)	> 100 µM (inactive)	> 100 µM (inactive)	> 100 µM (inactive)	> 100 µM (inactive)	> 100 µM (inactive)	> 100 µM (inactive)	> 100 µM (inactive)	> 100 µM (inactive)	> 100 µM (inactive)	> 100 µM (inactive)	> 100 µM (inactive)	> 100 µM (inactive)	> 100 µM (inactive)	> 100 µM (inactive)	> 100 µM (inactive)	> 10 µM (inactive)	> 100 µM (inactive)	> 100 µM (inactive)	> 100 µM (inactive)	> 100 µM (inactive)
COc1ccc(/N=N/c2ccc3oc(=O)c(C(=O)Nc4ccccc4)cc3c2)cc1	> 10 µM (inactive)	> 10 µM (inactive)	> 10 µM (inactive)	> 10 µM (inactive)	> 10 µM (inactive)	> 10 µM (inactive)	> 10 µM (inactive)	> 10 µM (inactive)	> 10 µM (inactive)	> 10 µM (inactive)	> 10 µM (inactive)	> 10 µM (inactive)	> 10 µM (inactive)	> 10 µM (inactive)	5.52 µM (inactive)	> 10 µM (inactive)	> 10 µM (inactive)	> 10 µM (inactive)	> 10 µM (inactive)	> 10 µM (inactive)
CS(=O)(=O)OCCN(CCOS(C)(=O)=O)c1ccc(/C=N/c2ccc(-c3csc(Cc4ccccc4)n3)cc2)c(Cl)c1	28.8 µM (inactive)	6.5 µM (inactive)	31.7 µM (inactive)	43.5 µM (inactive)	10.9 µM (inactive)	37.1 µM (inactive)	31.8 µM (inactive)	25.3 µM (inactive)	3.93 µM (inactive)	23.7 µM (inactive)	11.6 µM (inactive)	17.7 µM (inactive)	28.2 µM (inactive)	20.1 µM (inactive)	26.4 µM (inactive)	33.7 µM (inactive)	0.102 µM (active)	21.9 µM (inactive)	13 µM (inactive)	5.01 µM (inactive)
COc1ccccc1C1C2=C(COC2=O)OC(C)(C)Oc2cc3c(cc21)OCO3 (stereo not given)	5.48 µM (inactive)	3.37 µM (inactive)	10.3 µM (inactive)	4 µM (inactive)	7.29 µM (inactive)	3.89 µM (inactive)	3.67 µM (inactive)	3.18 µM (inactive)	1.69 µM (inactive)	3.44 µM (inactive)	5.13 µM (inactive)	2.73 µM (inactive)	3.85 µM (inactive)	5.16 µM (inactive)	10 µM (inactive)	1.06 µM (active)	3.06 µM (inactive)	3.47 µM (inactive)	4.02 µM (inactive)	13.4 µM (inactive)
O=C(/C=C/c1ccc(Cl)cc1)c1ccccc(=O)c1O	0.643 µM (active)	1.14 µM (inactive)	0.673 µM (active)	3.56 µM (inactive)	0.579 µM (active)	1.33 µM (inactive)	4.38 µM (inactive)	2.87 µM (inactive)	4.55 µM (inactive)	0.238 µM (active)	1.41 µM (inactive)	3.64 µM (inactive)	2.26 µM (inactive)	1.29 µM (inactive)	1.51 µM (inactive)	2.81 µM (inactive)	2.84 µM (inactive)	2.58 µM (inactive)	2.65 µM (inactive)	6.34 µM (inactive)
CC(=O)Oc1ccc2c(c1)C(=O)c1nc(C)c(C)nc1C2=O	46.5 µM (inactive)	17.5 µM (inactive)	46.3 µM (inactive)	71.8 µM (inactive)	21.4 µM (inactive)	19.5 µM (inactive)	46.5 µM (inactive)	38.1 µM (inactive)	> 100 µM (inactive)	29.6 µM (inactive)	43.7 µM (inactive)	21.4 µM (inactive)	51.6 µM (inactive)	39.4 µM (inactive)	> 74.6 µM (inactive)	31.8 µM (inactive)	> 63.4 µM (inactive)	31.8 µM (inactive)	23.7 µM (inactive)	> 100 µM (inactive)
CN(C)/N=N/c1nc2c(c(=O)n(C)c(=O)n2C)n1C	> 100 µM (inactive)	> 100 µM (inactive)	> 100 µM (inactive)	> 100 µM (inactive)	> 100 µM (inactive)	> 100 µM (inactive)	> 100 µM (inactive)	> 100 µM (inactive)	> 100 µM (inactive)	4.04 µM (inactive)	> 100 µM (inactive)	> 100 µM (inactive)	> 100 µM (inactive)	> 100 µM (inactive)	> 100 µM (inactive)	> 100 µM (inactive)	> 100 µM (inactive)	> 100 µM (inactive)	> 100 µM (inactive)	> 100 µM (inactive)
COc1cccc2c1/c(=C/c1ccc(N(C)C)cc1)c1cc(-c3ccccc3)[n+](C)n12	0.0331 µM (active)	0.182 µM (active)	0.344 µM (active)	0.223 µM (active)	0.0348 µM (active)	0.221 µM (active)	0.0421 µM (active)	0.126 µM (active)	0.165 µM (active)	0.0385 µM (active)	0.112 µM (active)	0.0857 µM (active)	< 0.0158 µM (active)	0.153 µM (active)	0.295 µM (active)	0.528 µM (active)	0.305 µM (active)	0.0736 µM (active)	0.218 µM (active)	0.509 µM (active)
Cc1cc(S(=O)(=O)/N=C(\NN)NNc2cccc(C(F)(F)F)n2)c(S)cc1Cl	30.6 µM (inactive)	16.7 µM (inactive)	14.4 µM (inactive)	25.4 µM (inactive)	16.5 µM (inactive)	19.1 µM (inactive)	18.5 µM (inactive)	17.9 µM (inactive)	26.2 µM (inactive)	21.3 µM (inactive)	22.8 µM (inactive)	22.1 µM (inactive)	16.8 µM (inactive)	18.9 µM (inactive)	18.9 µM (inactive)	29 µM (inactive)	22.1 µM (inactive)	19.7 µM (inactive)	19.6 µM (inactive)	14.9 µM (inactive)
O=C1Nc2c(Cl)cc(Cl)cc2C1=O	17.9 µM (inactive)	15.8 µM (inactive)	17.8 µM (inactive)	77.4 µM (inactive)	34.7 µM (inactive)	1.94 µM (inactive)	18.5 µM (inactive)	19.6 µM (inactive)	95.9 µM (inactive)	12.2 µM (inactive)	19.3 µM (inactive)	20.3 µM (inactive)	21.2 µM (inactive)	14.4 µM (inactive)	19.3 µM (inactive)	13.6 µM (inactive)	23.2 µM (inactive)	27.4 µM (inactive)	18.5 µM (inactive)	20.7 µM (inactive)
COC1=C(OC)C(=O)C(Cc2c(C)nc3sc(C)cn23)=C(C)C1=O	16.9 µM (inactive)	14 µM (inactive)	10.9 µM (inactive)	22 µM (inactive)	29 µM (inactive)	14.9 µM (inactive)	25.5 µM (inactive)	17 µM (inactive)	18.5 µM (inactive)	17.9 µM (inactive)	19.5 µM (inactive)	17.5 µM (inactive)	19.8 µM (inactive)	17.4 µM (inactive)	16.8 µM (inactive)	20.9 µM (inactive)	33 µM (inactive)	20.2 µM (inactive)	18.5 µM (inactive)	22.2 µM (inactive)
CN(Cc1cnc2nc(N)nc(N)c2n1)c1ccc(C(=O)N[C@@H](CCC(=O)O)C(=O)O)cc1 [METHOTREXATE]	0.0321 µM (active)	0.0286 µM (active)	59.6 µM (inactive)	20.7 µM (inactive)	0.119 µM (active)	2.36 µM (inactive)	0.0388 µM (active)	0.0334 µM (active)	37.4 µM (inactive)	0.0373 µM (active)	0.0345 µM (active)	0.433 µM (active)	0.0723 µM (active)	0.0274 µM (active)	0.227 µM (active)	20.7 µM (inactive)	4.78 µM (inactive)	0.0335 µM (active)	0.0403 µM (active)	0.916 µM (active)
Cc1cc(S(=O)(=O)Nc2nc(Nc3ccccc3)n[nH]2)c(SCC(=O)O)cc1Cl	> 100 µM (inactive)	> 100 µM (inactive)	> 100 µM (inactive)	> 100 µM (inactive)	> 100 µM (inactive)	> 100 µM (inactive)	> 100 µM (inactive)	> 100 µM (inactive)	> 100 µM (inactive)	> 100 µM (inactive)	> 100 µM (inactive)	> 100 µM (inactive)	> 100 µM (inactive)	> 100 µM (inactive)	> 100 µM (inactive)	> 100 µM (inactive)	> 100 µM (inactive)	> 100 µM (inactive)	> 100 µM (inactive)	> 100 µM (inactive)
Nc1nc(I)nc2c1ncn2C1OC(COS(N)(=O)=O)C(O)C1O (stereo not given)	< 0.01 µM (active)	0.0226 µM (active)	< 0.01 µM (active)	< 0.0166 µM (active)	< 0.0127 µM (active)	< 0.01 µM (active)	0.0235 µM (active)	< 0.0104 µM (active)	0.0102 µM (active)	< 0.01 µM (active)	0.0275 µM (active)	< 0.01 µM (active)	< 0.01 µM (active)	< 0.0116 µM (active)	0.0187 µM (active)	0.0148 µM (active)	< 0.01 µM (active)	< 0.0106 µM (active)	0.0218 µM (active)	< 0.01 µM (active)
